Consider 46 compounds from the Deep4Chem optical property database.

Structures are written as SMILES.

This data set is described as follows: solvent given as SMILES.
Where [1] appears, read: in c1ccc2c(c1)c1ccccc1n2-c1ccc(-c2ccc(-n3c4ccccc4c4ccccc43)cc2)cc1.

On to `c1ccc2c(c1)c1ccccc1n2-c1ccc2cc(-c3ccc(-c4ccc(-c5cc6ccc(-n7c8ccccc8c8ccccc87)cc6o5)cc4)cc3)oc2c1`, for which the absorption maximum runs as follows: (in Cc1ccccc1) 369 nm; under setting [1], 380 nm.
The compound `CC(C)=N[O-]` came in with an absorption maximum (in CCO) of 265 nm.
Under “in ClC(Cl)Cl”, `N#Cc1nc(N(Cc2ccc(Cl)cc2)Cc2ccc(Cl)cc2)c(C#N)nc1N(Cc1ccc(Cl)cc1)Cc1ccc(Cl)cc1` gave an absorption maximum of 485 nm.
Regarding `CCn1c(=O)nc2n(C)c3cc(C)ccc3nc-2c1=O`, the absorption maximum runs as follows: (in C1COCCO1) 443 nm; (in CC#N) 445 nm; (in CO) 446 nm; (in ClCCCl) 448 nm.
Consider `COc1ccc(-c2c3ccccc3c(-c3ccc(OC)cc3)c3cc4sc(C)cc4cc23)cc1`, for which the absorption maximum (in ClCCl) stood at 450 nm.
Where the note is “in CCO”, `Cc1c(COC(=O)c2ccccc2Cl)n2c(OCC(=O)c3ccccc3Cl)c(C)c(=O)n2c1=O` had an absorption maximum of 381 nm.
In the case of `F[B-]1(F)n2c(c(-c3ccccc3)c(-c3ccccc3)c2-c2ccccc2)C(c2ccccc2)=C2C(c3ccccc3)=C(c3ccccc3)C(c3ccccc3)=[N+]21`, the absorption maximum (in C1CCOC1) is recorded as 573 nm.
Where the note is “in O”, `[NH3+]c1cc([NH3+])cc(-c2[nH+]c3ccccc3s2)c1` had an absorption maximum of 328 nm.
Compound `COc1cc(C=C(C#Cc2ccccc2)C#Cc2ccccc2)c(OC)cc1C=C(C#Cc1ccccc1)C#Cc1ccccc1` showed an absorption maximum (in ClC(Cl)Cl) of 455 nm.
For the setting “in C1CCOC1”, `F[B-]1(F)n2c(c(-c3ccccc3)c(-c3ccccc3)c2-c2ccccc2)C=C2C(c3ccccc3)=C(c3ccccc3)C(c3ccccc3)=[N+]21` registered an absorption maximum of 576 nm.
Where the note is “in O”, `CC[N+]1(CC)CN2C(=N1)C(C(=O)O)=Cc1cc(Cl)ccc12` registered an absorption maximum of 377 nm.
For `Cc1c2c(c(C)c3ccccc13)C1=CC3Nc4ccccc4NC3C=C12` (stereo not given), the absorption maximum (in ClC(Cl)Cl) came out at 470 nm.
Turning to `COC(=O)CN1C(=O)c2cc3ccc(N(C)C)cc3cc2C1=O`, the absorption maximum is given as 373 nm (in C1CCOC1); 380 nm (in CC#N); 375 nm (in CC(C)=O); 379 nm (in CCO); 373 nm (in Cc1ccccc1); 380 nm (in ClC(Cl)Cl).
In the case of `CSc1sc(C(=O)c2ccccc2)c2nn[nH]c(=O)c12`, the absorption maximum is listed as 396.5 nm (in C1CCOC1); 396 nm (in CC#N); 400 nm (in CCO); 409 nm (in CN(C)C=O); 400 nm (in CO); 405.5 nm (in CS(C)=O).
Regarding `O=P1(c2ccccc2)C2=C(c3ccccc31)C(c1ccccc1)(c1ccccc1)c1cc(N(c3ccccc3)c3ccccc3)ccc12` (stereo not given), the absorption maximum by setting is: (in CC#N) 427 nm; (in CO) 438 nm; (in Cc1ccccc1) 431 nm.
Regarding `OB(O)c1ccc(-c2ccc(N(c3ccccc3)c3ccccc3)cc2)cc1`, the absorption maximum turned out to be 332.8 nm (in C1CCCCC1); 331 nm (in C1CCOC1); 329.6 nm (in CCO); 330 nm (in CCOCC); 326 nm (in CO).
On to `O=[N+]([O-])c1ccc(O)c(-c2nc3c(c4c2-c2ccccc2CC4)-c2ccccc2CC3)c1`, for which, under “in ClCCl”, the absorption maximum was 342 nm.
Take `CCCCC1(CCCC)c2cc(C#Cc3ccc4ccc5cccc6ccc3c4c56)ccc2-c2ccc(C#Cc3ccc4ccc5cccc6ccc3c4c56)cc21`: the absorption maximum is 418 nm (in C1CCCCC1); 421 nm (in C1CCOC1); 420 nm (in CC#N); 419 nm (in CCOC(C)=O); 427 nm (in CN(C)C=O); 424 nm (in Cc1ccccc1). Also, the absorption maximum is reported as 421 nm (in ClC(Cl)Cl) and 424 nm (in ClCCl).
As for `FC(F)(F)C(F)(F)C(F)(F)C1=NC2=C(Br)C=C3c4cc(Br)c5nc(C(F)(F)C(F)(F)C(F)(F)F)nc6c(Br)cc(c4c56)=C4C=C(Br)C(=N1)C2C34` (stereo not given), the absorption maximum (in C1CCOC1) is recorded as 475 nm.
Consider `CCCCN1C(=O)C(=C/C=C/C=C2N(CCCC)c3ccccc3N2CCCC)C(=O)N(CCCC)C1=S`, for which the absorption maximum was found to be 574 nm (in CCCCCC); 452 nm (in CCO); 497 nm (in CN(C)C=O); 575 nm (in Cc1ccccc1); 559 nm (in ClC(Cl)Cl); 550 nm (in ClCCl).
Regarding `Cc1cc(C)c(B(c2c(C)cc(C)cc2C)c2cc3ccc4ccccc4c3c3c2cc(N(C)C)c2ccccc23)c(C)c1`, the absorption maximum is on record as 438 nm (in C1CCCCC1); 439 nm (in C1CCOC1); 437 nm (in CC#N); 440 nm (in ClC(Cl)Cl); 440 nm (in c1ccccc1).
`c1ccc(-[n+]2c3ccc4cccc5c6cccc7c8cccc9ccc2c(c98)c(c67)c3c45)cc1` gave an absorption maximum (in ClCCl) of 512 nm.
Still for that read-out and setting: to `COC(=O)[C@H](Cc1ccccc1)Nc1c(C(C)=O)c(=O)oc2cc(N(C)C)ccc12` belongs 373 nm.
Consider `Nc1ccc(/C=C/c2ccccc2)cc1`, for which the absorption maximum was determined as 318 nm (in CC#N) and 316 nm (in CCCCCC).
As to `N#Cc1nc2c3ccc(-c4ccc(-n5c6ccccc6c6ccccc65)cc4)cc3c3cc(-c4ccc(-n5c6ccccc6c6ccccc65)cc4)ccc3c2nc1C#N`, the absorption maximum (in Cc1ccccc1) turned out to be 418 nm.
`Cc1cc(C)c(B(c2cc3c4c(c(B(c5c(C)cc(C)cc5C)c5c(C)cc(C)cc5C)cc5c4c2CCC5)CCC3)c2c(C)cc(C)cc2C)c(C)c1` displayed an absorption maximum (in CCCCCC) of 420 nm.
On to `CCOc1cccc2c1O[B-](F)(F)[n+]1c3c(c4c(c1-2)-c1ccccc1CC4)-c1ccccc1CC3`, for which the absorption maximum (in ClCCl) is given as 343 nm.
Take `CCOC(=O)CCOc1ccc(C(c2c(C)[nH]c3ccccc23)c2c(C)[nH]c3ccccc23)cc1OC`: the absorption maximum reads like this: (in C1CCCCC1) 291 nm; (in CC#N) 289 nm; (in CO) 289 nm.
On to `C(#Cc1ccccc1)c1ccccc1`, for which the absorption maximum by setting is: (in CO) 298 nm; (in ClC(Cl)Cl) 299 nm; (in ClCCl) 299 nm.
The compound `C(=C1c2ccccc2CCc2ccccc21)c1ccc(-c2cc(-c3ccc(C=C4c5ccccc5CCc5ccccc54)cc3)cc(-c3ccc(C=C4c5ccccc5CCc5ccccc54)cc3)c2)cc1` displayed an absorption maximum (in C1CCOC1) of 318 nm.
In turn, `CCN(CC)c1ccc2cc(-c3ccc(-c4c5ccccc5c(-c5ccc(-c6cc7ccc(N(CC)CC)cc7oc6=O)cc5)c5ccccc45)cc3)c(=O)oc2c1` registered an absorption maximum (in ClC(Cl)Cl) of 412 nm.
As to `C1=Nc2cccc3cccc(c23)N1`, the absorption maximum reads like this: (in CC#N) 329 nm; (in CO) 329 nm; (in CS(C)=O) 333 nm; (in Cc1ccccc1) 331 nm.
On to `CCn1c2ccc(/C=C/c3ccc4c(c3)c3cc(-c5nc6ccccc6s5)ccc3n4CC)cc2c2cc(-c3nc4ccccc4s3)ccc21`, for which the absorption maximum was 361 nm (in C1CCOC1) and 360 nm (in CCOC(C)=O).
On to `N#Cc1ccc(-c2ccc3c(c2)c2cc(-c4ccc(C#N)cc4)ccc2c2c3nc(-c3ccc(-c4ccc(N(c5ccccc5)c5ccccc5)cc4)cc3)n2-c2ccccc2)cc1`, for which the absorption maximum is reported as 360.44 nm (in C1CCOC1), 360.44 nm (in CC#N), 370.05 nm (in CCCCCC) and 366.21 nm (in CCOCC).
With `O=P1(c2ccccc2)c2ccc(N3c4ccccc4Oc4ccccc43)cc2-c2cc(N3c4ccccc4Oc4ccccc43)ccc21`, the absorption maximum is, setting by setting: (in Cc1ccccc1) 405 nm; under setting [1], 404.2 nm.
Turning to `COc1ccc(/C=C/C2=CC(/C=C/c3ccc(OC)cc3)=[N+]3C2=C(c2ccc(-c4ccc5ccccc5n4)s2)c2c(/C=C/c4ccc(OC)cc4)cc(/C=C/c4ccc(OC)cc4)n2[B-]3(F)F)cc1`, under “in C1COCCO1”, the absorption maximum was 708 nm.
For the setting “in C1CCOC1”, `F[B-]1(F)Oc2c(-c3cccc4c3O[B-](F)(F)[n+]3c(-c5ccccc5)c(-c5ccccc5)n(-c5ccc(C(F)(F)F)cc5)c3-4)cccc2-c2n(-c3ccc(C(F)(F)F)cc3)c(-c3ccccc3)c(-c3ccccc3)[n+]21` displayed an absorption maximum of 342 nm.
Consider `COc1ccc(C2=C(c3ccc(OC)cc3)C(C)(C)c3c2ccc2ccccc32)cc1`, for which the absorption maximum (in C1CCCCC1) amounted to 336 nm.
Take `Cc1ccc2oc(-c3cc4cc(C)ccc4oc3=O)cc2c1`: the absorption maximum by setting is: (in CC#N) 372 nm; (in CCOC(C)=O) 374 nm; (in CS(C)=O) 377 nm; (in Cc1ccccc1) 378 nm; (in O) 351 nm.
`[O-]c1ccccc1/C=N/c1ccccc1/N=C/c1ccccc1[O-]` had an absorption maximum (in C1CCOC1) of 380 nm.
Turning to `CCCCCOc1cc2oc(=O)c3c4ccc(C#N)cc4c4ccc5cccc6c(c1)c2c3c4c56`, the absorption maximum (in C1CCOC1) was 426 nm.
Compound `F[B-]1(F)n2c(Cl)c(Cl)c(Br)c2C(Cl)=C2C(Br)=C(Cl)C(Cl)=[N+]21` gave an absorption maximum (in ClCCl) of 546 nm.
Turning to `CC1=[N+]2C(=C(c3ccc(C(=O)c4ccccc4)cc3)c3ccc(C)n3[B-]2(F)F)C=C1c1cc2n(c1)[B-](F)(F)[N+]1=CC=CC1=C2c1c(C)cc(C)cc1C`, the absorption maximum runs as follows: (in C1CCCCC1) 599 nm; (in CCOC(C)=O) 601.5 nm.
For the setting “in Cc1ccccc1”, `CC(C)[Si](C#Cc1ccc(-c2c3cccc4c5cccc6c(-c7ccc(C#C[Si](C(C)C)(C(C)C)C(C)C)cc7)c7cccc8c9cccc2c9c(c34)c(c65)c78)cc1)(C(C)C)C(C)C` returned an absorption maximum of 727 nm.
`COc1ccc(N(c2ccc(OC)cc2)c2ccc3ccc4c(B(c5c(C)cc(C)cc5C)c5c(C)cc(C)cc5C)ccc5ccc2c3c54)cc1`: the absorption maximum was 465 nm (in C1CCOC1); 459 nm (in CC(C)=O); 463 nm (in CCCCCC); 469 nm (in Cc1ccccc1); 461 nm (in ClC(Cl)Cl); 461 nm (in ClCCl).
Regarding `CC(C)(C)n1c(=O)c2cc3ccc4cccc5ccc(c2c1=O)c3c45`, the absorption maximum (in ClC(Cl)Cl) was found to be 423 nm.
